Experiments:
[1] = biological target: Histamine H4 receptor (Rattus norvegicus) (UniProt Q91ZY1); experiment: Antagonist activity at rat histamine H4 receptor assessed as decrease in intracellular calcium by FLIPR; type: functional, cell-based
Histamine H4 receptor [2] = biological target: T1, Histamine H4 receptor (Homo sapiens, UniProt Q9H3N8); conditions: HEK293
[3] = biological target: Histamine H4 receptor (Rattus norvegicus) (UniProt Q91ZY1); experiment: Antagonist activity at rat histamine H4 receptor assessed as decrease in intracellular calcium by FLIPR relative to histamine; type: functional, cell-based; design: concentration or dose not given beside the values
[4] = Lipophilicity, log D at pH7.5; type: physicochemical; conditions: buffer, pH 7.5
Histamine H4 receptor [5] = biological target: Histamine H4 receptor (Rattus norvegicus, UniProt Q91ZY1); experiment: Displacement of [3H]-histamine from rat histamine H4 receptor after 1 hr by liquid scintillation counting
Histamine H4 receptor (Rattus norvegicus, UniProt Q91ZY1), sequence (Q91ZY1 whole entry): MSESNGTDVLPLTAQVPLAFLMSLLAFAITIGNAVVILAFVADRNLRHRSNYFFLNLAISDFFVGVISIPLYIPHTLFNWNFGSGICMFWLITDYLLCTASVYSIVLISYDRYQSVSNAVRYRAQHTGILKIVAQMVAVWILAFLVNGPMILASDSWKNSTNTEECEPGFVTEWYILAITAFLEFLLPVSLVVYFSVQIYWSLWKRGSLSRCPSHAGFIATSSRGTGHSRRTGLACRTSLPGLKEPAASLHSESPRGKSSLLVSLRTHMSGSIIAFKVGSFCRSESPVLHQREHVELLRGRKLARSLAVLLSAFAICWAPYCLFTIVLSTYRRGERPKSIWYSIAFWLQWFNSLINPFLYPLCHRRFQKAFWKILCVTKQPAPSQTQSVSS

Histamine H4 receptor [6] = biological target: T1, Histamine H4 receptor; experiment: Displacement of [3H]-histamine from human histamine H4 receptor expressed in HEK293 cells after 1 hr by liquid scintillation counting; type: cell-based
Histamine H4 receptor [7] = biological target: T1, Histamine H4 receptor; experiment: Agonist activity at human histamine H4 receptor expressed in HEK293 cells coexpressing Galphaqi5 assessed as increase in intracellular calcium by FLIPR relative to histamine
Histamine H3 receptor [8] = biological target: Histamine H3 receptor (Homo sapiens, UniProt Q9Y5N1); experiment: Displacement of [3H]NAMH from human histamine H3 receptor expressed in C6 cells after 1 hr by liquid scintillation counting; type: cell-based
Histamine H3 receptor (Homo sapiens, UniProt Q9Y5N1), sequence (Q9Y5N1 whole entry): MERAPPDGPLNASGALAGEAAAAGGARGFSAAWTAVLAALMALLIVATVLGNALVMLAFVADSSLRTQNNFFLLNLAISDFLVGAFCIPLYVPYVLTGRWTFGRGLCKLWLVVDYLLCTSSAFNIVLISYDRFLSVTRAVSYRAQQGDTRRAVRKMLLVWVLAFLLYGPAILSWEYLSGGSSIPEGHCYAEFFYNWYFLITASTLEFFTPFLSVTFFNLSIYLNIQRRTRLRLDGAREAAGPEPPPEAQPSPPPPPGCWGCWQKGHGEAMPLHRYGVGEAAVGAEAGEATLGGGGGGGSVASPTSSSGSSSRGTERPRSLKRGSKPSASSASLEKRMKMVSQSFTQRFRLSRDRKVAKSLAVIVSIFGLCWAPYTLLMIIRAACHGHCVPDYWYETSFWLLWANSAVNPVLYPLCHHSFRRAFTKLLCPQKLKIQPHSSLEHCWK

Histamine H3 receptor [9] = biological target: Histamine H3 receptor (Rattus norvegicus, UniProt Q9QYN8); experiment: Displacement of [3H]NAMH from rat histamine H3 receptor expressed in C6 cells after 1 hr by liquid scintillation counting; type: cell-based
Histamine H3 receptor (Rattus norvegicus, UniProt Q9QYN8), sequence (Q9QYN8 whole entry): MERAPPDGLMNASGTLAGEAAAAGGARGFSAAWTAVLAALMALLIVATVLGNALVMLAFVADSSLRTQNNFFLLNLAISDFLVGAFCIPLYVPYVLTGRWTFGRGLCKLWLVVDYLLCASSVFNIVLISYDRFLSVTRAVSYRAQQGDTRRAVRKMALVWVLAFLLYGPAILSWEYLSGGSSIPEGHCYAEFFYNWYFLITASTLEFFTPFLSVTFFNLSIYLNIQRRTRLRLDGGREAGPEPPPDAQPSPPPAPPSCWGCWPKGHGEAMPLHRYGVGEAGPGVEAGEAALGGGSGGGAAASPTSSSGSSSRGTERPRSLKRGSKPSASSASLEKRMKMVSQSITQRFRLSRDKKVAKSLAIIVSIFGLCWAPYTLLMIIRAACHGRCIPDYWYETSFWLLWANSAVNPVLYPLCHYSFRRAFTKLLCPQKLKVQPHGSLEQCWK

Mus musculus = experiment: Inhibition of clobenpropit-induced scratching in hind paw of ip dosed mouse administered 30 mins before; type: functional
[10] = biological target: T2, Histamine H4 receptor (Mus musculus) (UniProt Q91ZY2); experiment: Antagonist activity at mouse histamine H4 receptor assessed as decrease in intracellular calcium by FLIPR; type: functional, cell-based
T2 sequence (whole entry): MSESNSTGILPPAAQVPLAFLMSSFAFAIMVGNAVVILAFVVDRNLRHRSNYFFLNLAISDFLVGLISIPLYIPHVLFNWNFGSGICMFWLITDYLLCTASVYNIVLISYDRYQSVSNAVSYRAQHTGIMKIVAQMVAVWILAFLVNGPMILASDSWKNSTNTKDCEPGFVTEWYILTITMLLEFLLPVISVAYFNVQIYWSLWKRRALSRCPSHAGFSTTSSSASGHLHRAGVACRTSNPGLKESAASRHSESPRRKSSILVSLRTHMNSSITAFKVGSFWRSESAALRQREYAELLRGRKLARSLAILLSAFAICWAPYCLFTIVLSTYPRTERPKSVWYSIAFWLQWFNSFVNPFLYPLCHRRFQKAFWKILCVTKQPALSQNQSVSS

Histamine H4 receptor (Rattus norvegicus), sequence (Q91ZY1 whole entry): as the sequence (Q91ZY1 whole entry) above

Row | pKb [1] | pKb (Histamine H4 receptor [2]) | Activity [3] [%] | Compound | other results
1 | < 4.68 | < 4.67 |  | Nc1nc(N2CCC(N)(C(=O)O)CC2)c2c(n1)C1(CCCC1)CCC2 | 
2 |  |  |  | CNC1CN(c2nc(N)nc3c2CCCCC3c2ccccc2)C1 (stereo not given) | logD [4]: 2.05
3 |  | 7.59 |  | Nc1nc2c(c(N3CC4CCCNC4C3)n1)CCCCC2c1ccccc1 (stereo not given) | Ki (Histamine H4 receptor [5]): 2.69 nM; Ki (Histamine H4 receptor [6]): 7.08 nM
4 | 5.42 | 8.56 | 87 | Nc1nc(N2CCNCC2)c2c(n1)C1(CCCC1)CCC2 | logD [4]: 2.2
5 | < 5.48 | 7.7 | 86 | CN1CCC(Oc2nc(N)nc3c2CCCC32CCCC2)CC1 | 
6 | < 5.32 | 8.01 | 77 | Nc1nc(N2CCCNCC2)c2c(n1)C1(CCCC1)CCC2 | 
7 | < 6 | 8.11 | 88 | CN(C)CCOc1nc(N)nc2c1CCCC21CCCC1 | 
8 | 6.9 | 7.66 | 84 | CN1CCC(Nc2nc(N)nc3c2CCCC32CCCC2)CC1 | 
9 | 4.86 | 4.57 | 135 | Nc1nc(N2CCNCC2)c2c(n1)C1(CCC2)Cc2ccccc2C1 | Activity (Histamine H4 receptor [7]): 49%
10 | 4.77 | 4.9 | 52 | COC(=O)C1(N)CCN(c2nc(N)nc3c2CCCC32CCCC2)CC1 | 
11 | 5.81 | 7 | 50 | Nc1nc(N2C[C@H]3CCCN[C@H]3C2)c2c(n1)C1(CCCCC1)CCC2 | 
12 | 4.63 | < 4.16 | 48 | Nc1nc(N2CC(N)C2)c2c(n1)C1(CCCC1)CCC2 | 
13 |  |  |  | CN[C@@H]1CCN(c2nc(N)nc3c2CCCC(c2ccccc2)C3)C1 (stereo not given in full) | Ki (Histamine H3 receptor [8]): 224 nM; Ki (Histamine H3 receptor [9]): 105 nM
14 | 6.87 | 7.28 | 63 | Nc1nc(N2CC[C@H](N)C2)c2c(n1)C1(CCCC1)CCC2 | 
15 | 7.26 | 7.24 |  | Nc1nc2c(c(N3CCNCC3)n1)CCCCC2c1ccccc1 (stereo not given) | ED50 (Mus musculus): 10 µmol/kg; Ki (Histamine H3 receptor [8]): 2240 nM; Ki (Histamine H3 receptor [9]): 661 nM; logD [4]: 1.73; pKb [10]: 7.34
16 | 7.6 | 8.34 | 46 | CNC1CN(c2nc(N)nc3c2CCCC32CCCC2)C1 | Ki (Histamine H3 receptor [8]): 63.1 nM; Ki (Histamine H3 receptor [9]): 6.76 nM; Ki (Histamine H4 receptor [5]): 1.45 nM; Ki (Histamine H4 receptor [6]): 1.51 nM; logD [4]: 1.6
17 | 8.24 | 7.88 |  | Nc1nc2c(c(N3C[C@H]4CCCN[C@H]4C3)n1)CCCCC2c1ccccc1 (stereo not given in full) | ED50 (Mus musculus): 3 µmol/kg; pKb [10]: 7.9
18 | 7.48 | 8.54 | 58 | CN[C@@H]1CCN(c2nc(N)nc3c2CCCC32CCCC2)C1 | Ki (Histamine H3 receptor [8]): 105 nM; Ki (Histamine H3 receptor [9]): 72.4 nM; Ki (Histamine H4 receptor [5]): 2.63 nM; Ki (Histamine H4 receptor [6]): 2 nM
19 | < 4.86 | 7.32 | 105 | Nc1nc(N2CCNCC2)c2c(n1)C1(CCCCC1)CCC2 | 
20 | < 4.96 | 7.33 | 84 | Nc1nc(N2CC[C@@H](N)C2)c2c(n1)C1(CCCCC1)CCC2 | 
21 | 6.09 | 6.3 |  | Nc1nc(N2CC[C@@H](N)C2)c2c(n1)C1(CCC2)Cc2ccccc2C1 | 
22 | 6.76 | 8.57 | 71 | Nc1nc(N2CC[C@@H](N)C2)c2c(n1)C1(CCCC1)CCC2 | ED50 (Mus musculus): 1 µmol/kg; Ki (Histamine H3 receptor [8]): 295 nM; Ki (Histamine H3 receptor [9]): 79.4 nM; pKb [10]: 7.82

Row | Compound | pKb [1] | pKb (Histamine H4 receptor [2]) | Activity [3] [%] | other results
23 | Nc1nc(N2C[C@H]3CCCN[C@H]3C2)c2c(n1)C1(CCCC1)CCC2 | < 6.6 | 8.07 | 35 | 
24 | Nc1nc(N2C[C@H]3CNC[C@H]3C2)c2c(n1)C1(CCCC1)CCC2 (stereo in doubt; 33) | 5.13 | 5.96 | 53 | 
25 | Nc1nc(N2C[C@H]3CNC[C@H]3C2)c2c(n1)C1(CCCC1)CCC2 (stereo in doubt; 34) | 5.65 | 5.99 | 48 | 

Reference: ChEMBL document CHEMBL1155405, “Rigidified 2-aminopyrimidines as histamine H4 receptor antagonists: effects of substitution about the rigidifying ring” (Bioorg Med Chem Lett, 2010)
